We go through four compounds from ChEMBL document CHEMBL1201862, “PubChem BioAssay data set” (2004).

The nature of assay [1]: NIH-3T3 fibroblast cytotoxicity, dose response, cytotoxicity control, cell-based, fluorescence, Alamar Blue, secondary assay (AID 2327).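 Also: NIH-3T3 mouse fibroblasts cultured with fluconazole at 8 µg/mL.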 In kind it is functional. (Alamar Blue is a resazurin reagent that responds to reducing activity.)
A short description of assay [2]: inhibitors of firefly luciferase expression or activity, dose response, H4 neuroglioma cells, luminescence (AID 1990). Format: functional, cell-based.
Assay [3] concerns Streptococcus sp. 'group A'. Briefly: growth inhibition of control SK(-) GAS strain, dose response, counter-screen for streptokinase expression inhibitor project, luminescence, kanamycin, BacTiterGlo, confirmation (AID 1900). Format: functional, organism-based. On the technique in general: Counterscreens check selectivity or assay interference.
Assay [4] in a line: Luminescence Cell-Based Dose Response HTS to Identify Inhibitors of 5'UTR Stem-Loop Driven Prion Protein mRNA Translation in H4 Neuroglioblastoma Cells. [Related pubchem assays: 1827 (Project Summary), 1813 (Primary HTS)]. In kind it is functional.
Assay [5] can be described thus: inhibitors of SNCA 5'UTR-driven reporter translation, confirmation, H4 neuroglioma cells, luminescence (AID 1988). In kind it is functional, cell-based.
Assay [6] in a line: C. albicans growth with fluconazole, confirmation, fluorescence, retest (AID 2467). Format: functional, cell-based.
Assay [7] can be described thus: microbe, parasite or virus in culture. In kind it is functional. The note with it: Mycobacterium tuberculosis.
For assay [8], the target named is T1, Serine/threonine-protein phosphatase (Candida dubliniensis (strain CD36 / CBS 7987 / NCPF 3949 / NRRLY-17841) (Yeast), UniProt B9W6M3).
T1 sequence (B9W6M3 whole entry): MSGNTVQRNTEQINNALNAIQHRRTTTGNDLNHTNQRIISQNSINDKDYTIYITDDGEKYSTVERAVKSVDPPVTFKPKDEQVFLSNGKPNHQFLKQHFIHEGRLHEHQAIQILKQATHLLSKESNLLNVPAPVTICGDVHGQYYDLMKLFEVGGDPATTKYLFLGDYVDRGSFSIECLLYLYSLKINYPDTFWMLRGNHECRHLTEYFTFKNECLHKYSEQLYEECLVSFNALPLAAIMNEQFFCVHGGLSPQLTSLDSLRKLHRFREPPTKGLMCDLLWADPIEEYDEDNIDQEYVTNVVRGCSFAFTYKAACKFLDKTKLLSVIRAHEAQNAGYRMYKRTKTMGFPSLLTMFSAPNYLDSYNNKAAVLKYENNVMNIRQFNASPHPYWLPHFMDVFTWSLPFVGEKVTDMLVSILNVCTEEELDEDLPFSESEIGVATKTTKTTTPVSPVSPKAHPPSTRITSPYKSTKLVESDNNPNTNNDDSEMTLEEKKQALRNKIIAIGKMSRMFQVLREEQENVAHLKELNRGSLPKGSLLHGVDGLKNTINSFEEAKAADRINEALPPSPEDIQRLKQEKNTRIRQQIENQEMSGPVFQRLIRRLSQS
In words: calcineurin pathway inhibitors in yeast reporter, dose response, S. cerevisiae, CDRE-lacZ, luminescence, secondary (AID 2388).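 Also: yeast reporter cells carrying a calcineurin-responsive lacZ construct stimulated with calcium chloride; luminescent beta-galactosidase reporter signal in whole cells rather than isolated phosphatase activity; potency for inhibition where a drop in reporter signal means calcineurin blockade.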 In kind it is functional, cell-based.

The test system of another assay is Streptococcus. In words: Group A Streptococcus viability loss, dose response, counter-screen for streptokinase expression inhibitor project, luminescence, BacTiterGlo (AID 1915).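 Also: potency for reduction of bacterial viability or growth.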 Format: functional, organism-based.
The target in assay [9] is T1, Serine/threonine-protein phosphatase. Briefly: Fluorescence Cell-Based Secondary Assay to Identify Inhibitors of Calcineurin. [Related pubchem assays (depositor defined):AID1979, AID2007]. In kind it is functional.
A further assay relates to INS1. In words: beta cell apoptosis inhibitors, cytokine rescue, dose response, luminescence, retest (AID 449756).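 Also: cell death triggered by IL-1 beta plus TNF-alpha plus IFN-gamma mixture; protective hits raise ATP signal compared with cytokine alone wells.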 Format: functional, cell-based. The note with it: Rattus norvegicus.
The target of assay [10] is ATP-dependent molecular chaperone HSP82 (Candida albicans (strain WO-1) (Yeast), UniProt C4YTQ8). In words: loss of DOC-induced GRE-beta-galactosidase reporter signal, dose response, Hsp90 inhibitor project, S. cerevisiae, luminescence (AID 2400).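 Also: beta-galactosidase luminescence from glucocorticoid response element reporter as proxy for Hsp90 function; inhibitor potency where signal loss means Hsp90 inhibition.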 Format: functional, cell-based.
Assay [11] relates to HEK293. Briefly: cells. The note with it: Homo sapiens.
The test system of assay [12] is HEK293. Briefly: cells. The conditions noted are these: Homo sapiens. The source holds these as a separate data set.
A short description of assay [13]: luciferase reporter signal reduction – luminescence, H4-C neuroglioblastoma cells, dose response (AID 2458).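 Also: H4 neuroglioblastoma cells stably carrying a luciferase reporter gene fusion.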 In kind it is functional, cell-based. (In a reporter assay the amount or activity of a reporter protein is the signal.)
Assay [14] concerns the target Luciferin 4-monooxygenase (Photinus pyralis, UniProt P08659). Briefly: Counter Screen for Luciferase-based Assay Positives. [Related pubchem assays: 620, 618, 411 ].
A short description of another assay: cells. In kind it is functional, cell-based.
Assay [15] concerns the target T2, Heat shock factor protein 1 (Mus musculus, UniProt P38532).
T2 sequence (P38532 whole entry): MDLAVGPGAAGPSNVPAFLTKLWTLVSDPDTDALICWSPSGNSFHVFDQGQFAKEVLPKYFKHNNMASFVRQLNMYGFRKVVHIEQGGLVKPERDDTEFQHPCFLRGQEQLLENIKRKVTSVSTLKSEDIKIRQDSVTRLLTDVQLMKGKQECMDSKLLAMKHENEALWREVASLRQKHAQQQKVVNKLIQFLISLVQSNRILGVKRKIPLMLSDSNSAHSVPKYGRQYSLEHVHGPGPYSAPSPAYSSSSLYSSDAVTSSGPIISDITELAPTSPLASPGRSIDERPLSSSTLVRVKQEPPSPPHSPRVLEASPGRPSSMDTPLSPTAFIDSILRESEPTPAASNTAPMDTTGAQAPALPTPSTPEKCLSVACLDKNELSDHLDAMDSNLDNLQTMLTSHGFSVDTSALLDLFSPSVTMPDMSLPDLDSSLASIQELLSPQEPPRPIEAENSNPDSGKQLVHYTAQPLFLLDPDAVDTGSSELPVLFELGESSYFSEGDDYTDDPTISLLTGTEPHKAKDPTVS
Briefly: inhibition of MG132-induced HSE-luciferase signal, confirmation, cell-based, NIH3T3, luminescence, dose retest (AID 2382).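 Also: NIH3T3 fibroblasts with HSF1-driven luciferase reporter stressed by proteasome inhibitor MG132; luminescence from HSF1-driven luciferase expression after 8 hours of MG132 stress.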 In kind it is functional.

The test system of the next assay is HT-1080. Briefly: cytotoxicity in HT1080 fibrosarcoma cells, cell-based, fluorescence readout (AID 620). The note with it: Homo sapiens. In kind it is functional.
A short description of assay [16]: inhibitors of SNCA 5'UTR-driven translation, confirmation, luminescence, H4 neuroglioblastoma cells, dose confirmation (AID 2454).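 Also: H4 neuroglioblastoma cells carrying an alpha-synuclein 5'UTR luciferase reporter; potency for inhibition of the luciferase signal.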 In kind it is functional, cell-based.
A further assay concerns Jurkat. Briefly: antigen receptor-induced NF-kB inhibitors, dose response, Jurkat, luciferase reporter, luminescence, B- and T-cell (AID 489004).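 Also: NF-kB luciferase reporter Jurkat cells stimulated with PMA plus ionomycin.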 Format: functional, cell-based. The conditions noted are these: Homo sapiens.
Assay [17] is described as follows: cytotoxicity in HEK-293T NF-kB-Luc cells, dose response, cytotoxicity control for B/T-cell NF-kB inhibitor project, cell-based, uHTS hits (AID 489019).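 Also: IC50 reflects cytotoxicity as loss of cell viability.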 In kind it is functional.
For assay [18], the target named is T3, Microphthalmia-associated transcription factor (Homo sapiens, UniProt O75030).
T3 sequence (O75030 whole entry): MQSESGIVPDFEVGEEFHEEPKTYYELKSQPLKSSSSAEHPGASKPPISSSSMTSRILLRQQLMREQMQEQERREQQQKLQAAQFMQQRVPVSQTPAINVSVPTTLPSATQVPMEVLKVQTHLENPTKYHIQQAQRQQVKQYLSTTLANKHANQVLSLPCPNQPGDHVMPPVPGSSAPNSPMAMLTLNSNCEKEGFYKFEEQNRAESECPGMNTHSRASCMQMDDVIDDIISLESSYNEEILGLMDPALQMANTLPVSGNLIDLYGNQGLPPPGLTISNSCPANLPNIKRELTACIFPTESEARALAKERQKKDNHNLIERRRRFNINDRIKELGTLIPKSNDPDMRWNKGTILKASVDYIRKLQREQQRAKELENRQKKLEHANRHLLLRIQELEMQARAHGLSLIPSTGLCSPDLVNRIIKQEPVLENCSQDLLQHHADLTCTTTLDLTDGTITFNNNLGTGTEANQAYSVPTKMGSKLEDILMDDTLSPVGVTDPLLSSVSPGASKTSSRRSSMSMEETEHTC
In words: TRPM1 promoter luciferase signal decrease, dose response, MITF inhibitor project, cell-based, SK-MEL-5, cherry-picked, set 3 (AID 493073).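 Also: SK-MEL-5 melanoma cells with luciferase driven by the MITF target TRPM1 promoter.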 Format: functional.

A short description of assay [19]: inhibitors of HIV Env-driven cell fusion, dose response, cherry-pick (AID 652057). In kind it is functional, cell-based.
The nature of assay [20]: ZM109 Env clade C HIV-1 fusion inhibitors, dose response, HeLa effector, CEM target cells, luciferase, cherry-pick (AID 652058). In kind it is functional, cell-based.
Assay [21] can be described thus: off-target signal loss in HeLa-CEM21 co-culture – HeLa F-luc CTL cells, cherry-picked, counter-screen for HIV-1 Env fusion inhibitor project, dose response (AID 652040).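 Also: potency for signal decrease marking cytotoxic or nonspecific inhibition.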 In kind it is functional, cell-based.
Assay [22] in a line: inhibitors of clade B AD8 Env fusion, dose response, cell-based, cherry-pick (AID 652062).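 Also: luciferase signal from cell-cell fusion driven by HIV-1 clade B AD8 Env; potency is for inhibitors of fusion seen as a drop in luminescence.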 In kind it is functional.
Assay [23] can be described thus: Shn3 3'UTR reporter inhibitors, dose response, cell-based, Clone20 osteoblasts, firefly luciferase, cherry-picked (AID 624132).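 Also: firefly luciferase luminescence from reporter carrying the Shn3 3'UTR in osteoblasts.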 Format: functional.
Assay [24] in a line: control 3'UTR Renilla luciferase suppression, dose response, counter-screen for Shn3 inhibitor project, cell-based, Clone20-Shn3RL, cherry-picked (AID 624133). In kind it is functional.
The target of the next assay is Protein Wnt-3a (Mus musculus, UniProt P27467). In words: Wnt3a-driven reporter signaling inhibition, dose response, selectivity assay for Gli-SUFU antagonist project, Wnt-LIGHT cells, luminescence (AID 651570).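 Also: Wnt-LIGHT reporter cells stimulated with conditioned medium from Wnt3a-producing cells.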 The conditions noted are these: read-out: IC50_Mean. Format: functional.
The target of assay [25] is T4, COUP transcription factor 2 (Homo sapiens, UniProt P24468).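 Also: HEK293 cells transiently cotransfected with COUP-TFII expression vector and reporter; luciferase reporter luminescence driven by COUP-TFII from the pX2-168 reporter plasmid.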
T4 sequence (P24468 whole entry): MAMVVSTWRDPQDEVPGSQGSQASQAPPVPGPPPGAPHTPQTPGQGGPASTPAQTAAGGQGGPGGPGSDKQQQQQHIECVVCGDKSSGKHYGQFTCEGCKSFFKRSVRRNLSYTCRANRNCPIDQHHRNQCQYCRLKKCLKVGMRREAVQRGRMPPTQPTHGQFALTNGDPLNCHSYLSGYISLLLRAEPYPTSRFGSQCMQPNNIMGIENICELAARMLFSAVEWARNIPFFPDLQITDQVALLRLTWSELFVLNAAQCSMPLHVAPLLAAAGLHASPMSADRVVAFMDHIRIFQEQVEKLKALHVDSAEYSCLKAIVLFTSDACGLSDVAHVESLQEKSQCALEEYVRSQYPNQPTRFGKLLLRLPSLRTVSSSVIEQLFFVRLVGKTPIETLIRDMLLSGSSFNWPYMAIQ
Briefly: Luminescence-based cell-based high throughput dose response assay to identify inhibitors of COUP-TFII (NR2F2). Format: functional.

The structures appear in SMILES notation. Active and inactive are the calls of the source.

Sequence of ATP-dependent molecular chaperone HSP82 (C4YTQ8 whole entry): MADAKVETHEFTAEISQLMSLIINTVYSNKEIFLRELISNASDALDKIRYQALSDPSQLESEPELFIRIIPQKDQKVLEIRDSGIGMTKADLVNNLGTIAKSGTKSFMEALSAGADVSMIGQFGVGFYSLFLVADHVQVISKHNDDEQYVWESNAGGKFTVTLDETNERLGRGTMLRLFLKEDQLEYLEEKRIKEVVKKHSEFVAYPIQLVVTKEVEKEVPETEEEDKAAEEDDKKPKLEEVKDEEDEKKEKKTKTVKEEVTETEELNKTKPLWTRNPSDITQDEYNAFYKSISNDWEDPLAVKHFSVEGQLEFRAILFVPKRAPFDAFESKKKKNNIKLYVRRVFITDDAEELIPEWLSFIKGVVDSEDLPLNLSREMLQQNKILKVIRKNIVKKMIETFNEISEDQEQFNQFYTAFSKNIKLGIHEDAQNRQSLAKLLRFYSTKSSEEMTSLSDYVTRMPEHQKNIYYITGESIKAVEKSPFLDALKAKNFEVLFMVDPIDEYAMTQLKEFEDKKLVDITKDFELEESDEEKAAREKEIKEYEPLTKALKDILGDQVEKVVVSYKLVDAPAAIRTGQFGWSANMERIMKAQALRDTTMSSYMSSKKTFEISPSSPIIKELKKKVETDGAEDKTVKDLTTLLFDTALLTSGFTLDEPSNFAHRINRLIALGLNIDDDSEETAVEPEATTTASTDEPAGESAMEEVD
Sequence of Protein Wnt-3a (P27467 whole entry): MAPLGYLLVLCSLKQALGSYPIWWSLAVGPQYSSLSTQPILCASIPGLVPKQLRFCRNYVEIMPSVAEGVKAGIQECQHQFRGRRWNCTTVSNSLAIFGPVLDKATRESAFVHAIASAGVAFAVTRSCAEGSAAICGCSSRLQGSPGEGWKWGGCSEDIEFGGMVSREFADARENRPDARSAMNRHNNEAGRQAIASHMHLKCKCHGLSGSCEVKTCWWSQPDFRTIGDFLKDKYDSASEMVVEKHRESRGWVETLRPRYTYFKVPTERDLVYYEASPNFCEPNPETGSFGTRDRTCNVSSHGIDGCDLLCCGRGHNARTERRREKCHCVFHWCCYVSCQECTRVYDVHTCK
Sequence of Luciferin 4-monooxygenase (P08659 whole entry): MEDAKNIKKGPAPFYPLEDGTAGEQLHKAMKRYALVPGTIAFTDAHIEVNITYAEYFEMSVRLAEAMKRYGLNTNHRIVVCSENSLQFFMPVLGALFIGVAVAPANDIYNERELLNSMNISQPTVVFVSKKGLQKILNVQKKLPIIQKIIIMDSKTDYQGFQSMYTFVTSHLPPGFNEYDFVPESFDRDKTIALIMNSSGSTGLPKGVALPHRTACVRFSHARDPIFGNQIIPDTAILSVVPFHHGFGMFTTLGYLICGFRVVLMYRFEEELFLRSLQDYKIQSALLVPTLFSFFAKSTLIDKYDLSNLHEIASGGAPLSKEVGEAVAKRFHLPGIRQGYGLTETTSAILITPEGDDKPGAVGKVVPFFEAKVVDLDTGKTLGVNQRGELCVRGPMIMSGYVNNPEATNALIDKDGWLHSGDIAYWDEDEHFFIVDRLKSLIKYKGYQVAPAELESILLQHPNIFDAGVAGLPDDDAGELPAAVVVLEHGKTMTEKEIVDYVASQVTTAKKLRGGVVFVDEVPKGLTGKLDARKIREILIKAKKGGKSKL

Turning to `CC(C)COCc1ccc(O)c2ncccc12`, the EC50 is 31800 nM (active) in assay [1]; 12100 nM (active) in assay [2]; 1670 nM (active) in [3]; 10900 nM (active) in assay [4]; 9380 nM (active) in [5]; 294 nM (active) in assay [6]. Besides, the EC50 was > 180000 nM (inactive) in assay [8], 5430 nM (active) in the assay on Streptococcus, > 285000 nM (inactive) in [9] and > 150000 nM (inactive) in assay [10]. Also, the CC50 in [7] is 10200 nM (active). For the same compound, the AC50 in the assay on INS1 was 2350 nM (active).
On to `Cc1cc(NC(=O)CSc2nc(C(C)C)nc3sc(C)c(C)c23)no1`, for which the EC50 with HEK293 [11] and with HEK293 [12] was > 59700 nM (inactive) in each case.
`CC(C)(C)c1ccc(C(=O)Nc2ccc(CC(=O)O)cc2)o1`: the EC50 in [2] was < 100 nM (active); in assay [13], 106 nM (active); in assay [14], 570 nM (active); in the assay “cells” it was 344 nM (active); in [15], < 160 nM (active); in assay [5], < 100 nM (active). Further, the EC50 in the assay with HT-1080 was > 50000 nM (not active); in [16] it was 113 nM (active). Also, the figures for the IC50 (in the assay with Jurkat; in [17]) were < 160 nM (active) and > 80000 nM (inactive), respectively. The AC50 in [18] is 329 nM (active); in [19], 392 nM (active); in assay [20] it was < 260 nM (active); in [21], 558 nM (active); in assay [22] it was < 260 nM (active).
Regarding `CCOC(=O)C1CCCN(S(=O)(=O)c2ccc(S(=O)(=O)N(CC)CC)cc2)C1` (stereo unspecified), the IC50 was > 80000 nM (inactive) with Jurkat, > 80000 nM (inactive) in [17], 236 nM (active) on Protein Wnt-3a and 4750 nM (active) in assay [25]. Besides, the results for the AC50 (in the assay on INS1; in assay [23]; in assay [24]) were 2600 nM (active), 512 nM (active) and 801 nM (active), respectively.

The EC50 is the concentration at which the effect is half-maximal. In general, AC50 refers to the concentration giving half of the maximal activity seen.
